Experimental data taken from US6200984A, “Naphtho-imidazo pyridine derivatives useful in treating central nervous system disorders” (Ortho-McNeil Pharmaceutical, Inc., priority 1998, dated 2001).
Read-outs that look alike come from different tables or passages of the source.

Columns and labels:
[1] = system: Metrazol-Induced Convulsions; assay: Suppression of Metrazol-Induced Convulsions in Adult Male Mice; type: in vivo, mice (male CD1); conditions: Mus musculus, ip, read-out: anti-metrazol ED50
Method: Assay to Determine the Suppression of Metrazol-Induced Convulsions in Adult Male Mice
Male CD1 mice, were fasted at least 16 hours, were divided into equal groups and test compounds or vehicle were administered parenterally. Water was not withheld except during the period of observations. […] Metrazol was dissolved in 0.9% sodium chloride solution, and its dose volume was 10 ml/kg. Animals were housed individually for observation of clonic convulsions, tonic convulsions and death for a period of 30 min. […] The biological assay was considered to be valid if the effects of a known anticonvulsant (positive control) were detected, within the same experiment. Activity was reported as percent reduction of clonic convulsions from the vehicle group.

[2] = system: behavior suppressed by punishment (rat conflict); assay: Suppression of Anxiety in the Adult Male Rat (rat conflict, Vogel); type: in vivo; conditions: po
Method: Assay to Measure the Suppression of Anxiety in the Adult Male Rat
Male rats were deprived of water for 48 hours and were deprived of food for 24 hours prior to testing. After the first 24 hours of water deprivation, they were placed in the conflict chamber for a training period; wherein, they were allowed 200 unpunished licks from a bottle containing tap water. The experiment was run the next day. At the expected time of peak activity, the animals were placed in the chamber and allowed access to tap water. […] Their first lick initiates a 3-min test session. Subsequently,every 20th lick was punished by a 0.2-s shock delivered via the stainless-steel drinking-tube. […] The Wilcoxon rank-sum test (Mann-WhitneyU-test) was used to test for an increase (p<0.05, 1-tailed) in the median number of shocks in drug-treated groups, compared to a concurrently run vehicle-treated group. The biological assay is considered to be valid if the effects of a known anxiolytic (positive control) are detected, within the same experiment.

[3] = target: benzodiazepine site of the GABA-A receptor; assay: Benzodiazepine Receptor Binding Assay (inhibition of 3H-flunitrazepam binding); conditions: 3H-flunitrazepam ca. 3 nM
[4] = minimum effective dose, Wilcoxon rank-sum test p<0.05, read-out: rat conflict MED
[5] = mice, s.c. CD90 metrazol, clonic convulsions
[6] = Rattus norvegicus, read-out: rat conflict MED, po, minimum effective dose, Wilcoxon rank-sum test p<0.05

SMILES	ED50 [1]	minimal effective dose [2, 4]	IC50 [3]	ED50 [1, 5]	minimal effective dose [2, 6]
O=C1CCN2C(=C1C(=O)Nc1ccccc1F)Nc1cc3ccccc3cc12 [Example 1, 3-oxo-1,2,3,5-tetrahydronaphtho[2',3': 4,5]imidazo[1,2-a]pyridine-4-carboxylic acid (2-fluorophenyl)amide]	1 mg/kg	> 10 mg/kg	17 nM		
O=C1CCN2C(=C1C(=O)Nc1c(F)cccc1F)Nc1cc3ccccc3cc12 [Example 2, 3-oxo-1,2,3,5-tetrahydronaphtho[2',3': 4,5]imidazo[1,2-a]pyridine-4-carboxylic acid (2,6-difluorophenyl)amide]			3.95 nM	1 mg/kg	> 10 mg/kg
CCN1C2=C(C(=O)Nc3ccccc3F)C(=O)CCN2c2cc3ccccc3cc21 [Example 3, 5-ethyl-3-oxo-1,2,3,5-tetrahydronaphtho[2',3': 4,5]imidazo[1,2-a]pyridine-4-carboxylic acid (2-fluorophenyl)amide]		10 mg/kg	0.94 nM	< 1 mg/kg	
CCN1C2=C(C(=O)Nc3c(F)cccc3F)C(=O)CCN2c2cc3ccccc3cc21 [Example 4, 5-ethyl-3-oxo-1,2,3,5-tetrahydronaphtho[2',3': 4,5]imidazo[1,2-a]pyridine-4-carboxylic acid (2,6-difluorophenyl)amide]		> 10 mg/kg	6.87 nM	> 1 mg/kg	
COCCN1C2=C(C(=O)Nc3ccccc3F)C(=O)CCN2c2cc3ccccc3cc21 [Example 5, 5-(2-methoxyethyl)-3-oxo-1,2,3,5-tetrahydronaphthol[2',3': 4,5]-imidazo[1,2-a]pyridine-4-carboxylic acid (2-fluorophenyl)amide]		10 mg/kg	0.37 nM	< 1 mg/kg	
CN(CCN1C2=C(C(=O)Nc3ccccc3F)C(=O)CCN2c2cc3ccccc3cc21)Cc1ccccc1 [Example 6, 5-[2-(benzylmethylamino)ethyl)-3-oxo-1,2,3,5-tetrahydronaphtho[2',3': 4,5]imidazo[1,2-a]pyridine-4-carboxylic acid (2-fluorophenyl)amide]			8.02 nM	> 1 mg/kg	> 10 mg/kg
CN(CCN1C2=C(C(=O)Nc3c(F)cccc3F)C(=O)CCN2c2cc3ccccc3cc21)Cc1ccccc1 [Example 7, 5-[2-(benzylmethylamino)ethyl)-3-oxo-1,2,3,5-tetrahydronaphtho[2',3': 4,5]imidazo[1,2-a]pyridine-4-carboxylic acid (2.6-difluorophenyl)amide]		> 10 mg/kg	58 nM	> 1 mg/kg	
CNCCN1C2=C(C(=O)Nc3ccccc3F)C(=O)CCN2c2cc3ccccc3cc21.Cl [Example 8, 5-[2-(methylamino)ethyl)-3-oxo-1,2,3,5-tetrahydronaphtho[2',3': 4,5]imidazo[1,2-a]pyridine-4-carboxylic acid (2-fluorophenyl)amide hydrochloride]			7.98 nM	> 1 mg/kg	> 10 mg/kg
CNCCN1C2=C(C(=O)Nc3c(F)cccc3F)C(=O)CCN2c2cc3ccccc3cc21.Cl [Example 9, 5-[2-(methylamino)ethyl)-3-oxo-1,2,3,5-tetrahydronaphtho[2',3': 4,5]imidazo[1,2-a]pyridine-4-carboxylic acid (2,6-difluorophenyl)amide hydrochloride]		> 10 mg/kg	75 nM	> 1 mg/kg	
CCOCN1C2=C(C(=O)Nc3c(F)cccc3F)C(=O)CCN2c2cc3ccccc3cc21 [Example 10, 5-Ethoxymethyl-3-oxo-1,2,3,5-tetrahydronaphtho[2',3': 4,5]-imidazo[1,2-a]pyridine-4-carboxylic acid (2,6-difluorophenyl)amide]		> 10 mg/kg	13 nM	> 1 mg/kg	
O=C1CCN2C(=C1C(=O)Nc1ccccc1F)Nc1ccc3ccccc3c12 [Example 11, 3-Oxo-1,2,3,5-tetrahydronaphtho[2',1': 4,5]imidazo[1,2-a]-pyridine-4-carboxylic acid (2-fluorophenylamide)]		> 10 mg/kg	> 1000 nM	> 1 mg/kg	
COCCN1C2=C(C(=O)Nc3ccccc3F)C(=O)CCN2c2c1ccc1ccccc21 [Example 12, 5-(2-Methoxyethyl)-3-oxo-1,2,3,5-tetrahydronaphtho[2',1': 4,5]-imidazo[1,2-a]pyridine-4-carboxylic acid (2-fluorophenylamide)]		> 10 mg/kg	58 nM	> 1 mg/kg	
O=C1CCN2C(=C1C(=O)Nc1ccccc1F)Nc1c2ccc2ccccc12 [Example 13, 3-Oxo-1,2,3,5-tetrahydronaphtho[1',2': 4,5]imidazo[1,2-a]pyridine-4-carboxylic acid (2-fluorophenylamide)]		> 10 mg/kg	154 nM	> 1 mg/kg	
O=C1CCN2C(=C1C(=O)Nc1ccccc1F)N(CC1CC1)c1cc3ccccc3cc12 [Example 14]			0.57 nM	< 1 mg/kg	> 10 mg/kg
CCOCN1C2=C(C(=O)Nc3ccccc3F)C(=O)CCN2c2cc3ccccc3cc21 [Example 15]			2.18 nM	< 1 mg/kg	> 10 mg/kg
CCN1C2=C(C(=O)Nc3cccs3)C(=O)CCN2c2cc3ccccc3cc21 [Example 16]		> 10 mg/kg	0.7 nM	< 1 mg/kg	
O=C1CCN2C(=C1C(=O)Nc1nccs1)Nc1cc3ccccc3cc12 [Example 17]			360 nM	> 1 mg/kg	
CCN1C2=C(C(=O)Nc3nccs3)C(=O)CCN2c2cc3ccccc3cc21 [Example 18]			11.1 nM	< 1 mg/kg	> 10 mg/kg
COCCN1C2=C(C(=O)Nc3nccs3)C(=O)CCN2c2cc3ccccc3cc21 [Example 19]			3.37 nM	< 1 mg/kg	> 10 mg/kg
O=C1CCN2C(=C1C(=O)Nc1c(F)cccc1F)Nc1c2ccc2ccccc12 [Example 20]		> 10 mg/kg	2.73 nM	< 1 mg/kg	
CCN1C2=C(C(=O)Nc3ccccc3F)C(=O)CCN2c2ccc3ccccc3c21 [Example 21]		> 10 mg/kg	16.5 nM	> 1 mg/kg	
COCCN1C2=C(C(=O)Nc3ccccc3F)C(=O)CCN2c2ccc3ccccc3c21 [Example 22]			31.8 nM	> 1 mg/kg	> 10 mg/kg
O=C1CCN2C(=C1C(=O)Nc1c(F)cccc1F)Nc1c2ccc2ccccc12 [Example 23]			17.9 nM		10 mg/kg
COCCN1C2=C(C(=O)Nc3c(F)cccc3F)C(=O)CCN2c2ccc3ccccc3c21 [Example 24]		> 3 mg/kg	0.29 nM	1 mg/kg	
CCOCCN1C2=C(C(=O)Nc3c(F)cccc3F)C(=O)CCN2c2ccc3ccccc3c21 [Example 25]		> 3 mg/kg	3.72 nM		
CCOCN1C2=C(C(=O)Nc3c(F)cccc3F)C(=O)CCN2c2ccc3ccccc3c21 [Example 26]			10.3 nM		> 10 mg/kg
